In series [1] the test system is Acinetobacter baumannii (ATCC 19606). The experiment in a line: Minimum bactericidal concentration (MBC) assay. The format is cell-based. The method, then:
(§1) The minimum bactericidal concentration assay was the same as the method used in Example 1.
(§2) Specifically, each type of bacteria was cultured in 3% (w/v) TSB (Tryptic Soy Broth) liquid medium at 37° C. and 200 rpm for 4 hours, and then further cultured under the same conditions for 3 hours to a concentration of 5×10^6 CFU/ml. Strain solutions were prepared by diluting each of the […] of 2×10^5 CFU/ml.
(§3) Then, the KU-5878 peptide at varying concentrations (0 μg/ml to 300 μg/ml) was dispensed into each well of a 96-well microplate, and 100 μl (1×10^5 CFU/ml) of each of the prepared strain solutions was added thereto, mixed therewith, and allowed to react with the peptide in an incubator at 37° C. for 1 hour.
(§4) In addition, 10 μl of each reaction solution of the peptide and the strain was plated on the TS agar plate at a constant size, and incubated in an incubator at 37° C. for 18 hours, and then colony formation on the plate was checked. The minimum bactericidal concentration was defined as the minimum concentration of the peptide at which no colony was formed, and the experimental results are shown in Table 2 below.

The test system of series [2] is Bacillus subtilis (ATCC 6633). The experiment in a line: Minimum bactericidal concentration (MBC) assay. The format is cell-based. How it is done:
as §1, §2, §3, §4

Series [3] relates to Enterobacter aerogenes (ATCC 13048). The experiment in a line: Minimum bactericidal concentration (MBC) assay. The format is cell-based. The method, then:
as §1, §2, §3, §4

In series [4] the test system is Enterococcus faecalis (ATCC 19433). The experiment in a line: Minimum bactericidal concentration (MBC) assay. The format is cell-based. The method, then: as §1, §2, §3, §4
The subject of series [5] is Enterococcus faecium (ATCC 19434). The experiment in a line: Minimum bactericidal concentration (MBC) assay. The format is cell-based. The method, then:
as §1, §2, §3, §4

The subject of series [6] is Escherichia coli (ATCC 25922). The experiment in a line: Minimum bactericidal concentration (MBC) assay. The format is cell-based. How it is done:
as §1, §2, §3, §4

For series [7], the system named is Klebsiella pneumoniae (ATCC 13883). The experiment in a line: Minimum bactericidal concentration (MBC) assay. The format is cell-based. How it is done:
as §1, §2, §3, §4

Series [8] deals with Streptomyces sindenensis (ATCC 12392). As to the kind of experiment: Minimum bactericidal concentration (MBC) assay. The format is cell-based. How it is done: as §1, §2, §3, §4
The test system of series [9] is Multidrug-resistant A. baumannii. The conditions noted are these: Multidrug-resistant. How it is done: as §1, §2, §3
(§5) In addition, 10 μl of each reaction solution of the peptide and the strain was plated on the TS agar plate at a constant size, and incubated in an incubator at 37° C. for 18 hours, and then colony formation on the plate was checked.
(§6) Meanwhile, the multidrug-resistant Pseudomonas aeruginosa, multidrug-resistant Acinetobacter and multidrug-resistant Klebsiella in Table 2 below were bacteria isolated from patients at Korea University Anam Hospital. […] Then, these bacteria were used in the experiment.

In series [10] the test system is Multidrug-resistant K. pneumoniae. The note with it: Multidrug-resistant. The method, then: as §1, §2, §3, §5, §6
In series [11] the test system is CRPA. As to the kind of experiment: MBC, evaluation of antibacterial activities of KU-5878 variants. The format is cell-based. The note with it: Tables 11-15, no unit printed.
Series [12] relates to Staphylococcus aureus, Pseudomonas aeruginosa, Klebsiella pneumoniae and Acinetobacter baumannii. The experiment in a line: Survival rate of mice injected with gram-positive or gram-negative bacteria. The format is in vivo, mice (C57BL/6). The conditions noted are these: FIG. 3, bacteria only 0 to 20%. An excerpt: Following Example 2-2, in order to evaluate the antibacterial activity of KU-5878 peptide in vivo, Staphylococcus aureus as gram-positive bacteria, Pseudomonas aeruginosa, Klebsiella pneumoniae and Acinetobacter baumannii as gram-negative bacteria, and multidrug-resistant Pseudomonas aeruginosa, methicillin-resistant Staphylococcus aureus, multidrug-resistant Klebsiella pneumoniae and multidrug-resistant Acinetobacter baumannii as multidrug-resistant bacteria were selected, and the following experiment was performed.
The experimental method is as described in Example 2-2 above. For a positive group, each type of the bacteria was injected into mice, and after 24 hours, 30 mg/kg of imipenem, a carbapenem-based antibiotic, was injected intraperitoneally (IP), and then the same amount of imipenem was administered intraperitoneally a total of 4 times at 12-hour intervals. The survival rates of each control group and the experimental group were measured at 24-hour intervals.

A short description of series [13]: Toxicity in vivo after intravenous injection. Also noted: species or system mouse (C57BL/6). The note with it: 100 mg/kg intravenous. The method, then:
At this time, the maximum volume of the injection dose was 150 μl.

No end group written: not given here.

This is an account of results in US12053506B2, “Romo1-derived antimicrobial peptides and variants thereof” (priority 2019, dated 2024).

As for KTMMQSGGTFGTFMAIGMGIR [KU-5878], the “MBC value (μg/ml), Acinetobacter baumannii” value in series [1] amounted to 100 µg/mL. Besides, the “MBC value (μg/ml), Bacillus subtilis” value in series [2] is 90 µg/mL. In addition, the “MBC value (μg/ml), Enterobacter aerogenes” value in [3] turned out to be 90 µg/mL. Besides, the “MBC value (μg/ml), Enterococcus faecalis” value in [4] was 85 µg/mL. Further, the “MBC value (μg/ml), Enterococcus faecium” value in [5] was 85 µg/mL. In addition, the “MBC value (μg/ml), Escherichia coli” value in series [6] was 85 µg/mL. For the same sequence, in [7], the “MBC value (μg/ml), Klebsiella pneumoniae” value came out at 100 µg/mL. The “MBC value (μg/ml), Streptomyces sindenensis” value in [8] was 95 µg/mL. Further, the “MBC value (μg/ml), Multidrug-resistant A. baumannii” value in [9] was found to be 110 µg/mL. The “MBC value (μg/ml), Multidrug-resistant K. pneumoniae” value in series [10] worked out at 100 µg/mL. The sequence further displayed an MBC CRPA in series [11] of 110 µg/mL. Moreover, the “survival rate of the mice” value in series [12] turned out to be 60%. Also, in series [13] (12 days), the “survival of mice after injection” value is “all survived”. Further, the “effect on the weight of the mice” value in [13] (weights at 24-hour intervals for 12 days, FIG. 7) was “no effect on the weight of the mice”.
